Experimental data reported in publication PMC11249646, “Small-Molecule Disruptors of the Interaction between Calcium- and Integrin-Binding Protein 1 and Integrin αIIbβ3 as Novel Antiplatelet Agents” (ACS Pharmacology & Translational Science, 2024).
Where two headings read alike, the source gives them in different places.

Target: T1, CIB1 and αIIb interaction (CIB1-GST : F-αIIb peptide) (Homo sapiens, UniProt Q99828)
T1 construct: made in house; host or cells: BL-21 plus RIL cells (E. coli)
T1 sequence (Q99828 1-191): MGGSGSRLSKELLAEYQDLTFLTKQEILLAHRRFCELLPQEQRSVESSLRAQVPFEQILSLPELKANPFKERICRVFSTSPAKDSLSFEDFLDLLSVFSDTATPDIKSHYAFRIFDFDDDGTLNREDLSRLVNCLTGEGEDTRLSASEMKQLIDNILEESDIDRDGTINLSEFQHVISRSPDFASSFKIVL
Assay: FP assay, 1536-well qHTS format (primary and confirmatory screen)
Assay type: binding

[1] = qHTS primary screen hits, Table S2, negative = inhibition
[2] = qHTS primary screen hits, Table S2, negative sign = inhibitory curve, several classes where COUNT > 1
[3] = qHTS primary screen hits, Table S2, read-out: IC50
[4] = qHTS primary screen hits, Table S2, negative sign = inhibitory curve
[5] = qHTS primary screen of LOPAC/NPACT libraries, negative = inhibition
[6] = qHTS primary screen of LOPAC/NPACT libraries, negative sign = inhibitory curve
[7] = qHTS primary screen of LOPAC/NPACT libraries, read-out: IC50
[8] = qHTS FP screen hits, Table S2, negative = inhibition
[9] = qHTS FP screen hits, Table S2, read-out: IC50

## O=C(O)C(F)(F)F.Oc1cc(NCCN2CCOCC2)cc2cccnc12 [NCGC00183799-01]
[1]
  Efficacy (%): -45%
[2]
  Curve Class: -2.2
[3]
  IC50: 50.1 µM

## C[C@]12CC[C@@H]3c4ccc(OC(=O)N(CCCl)CCCl)cc4CC[C@H]3[C@@H]1CC[C@@H]2O [NCGC00164581-02]
[1]
  Efficacy (%): -41%
[2]
  Curve Class: -2.2
[3]
  IC50: 50.1 µM

## CCN(CC)C(=O)[C@@H]1C=C2c3cccc4[nH]cc(c34)C[C@H]2N(C)C1 [NCGC00168265-02]
[1]
  Efficacy (%): -141%
[4]
  Curve Class: -1.1
[3]
  IC50: 63.1 µM

## O=[N+]([O-])/C=C/c1ccc2c(c1)OCO2 [NCGC00186015-01]
[5]
  Efficacy (%): -24%
[6]
  Curve Class: -2.2
[7]
  IC50: 56.2 µM

## Cn1c(=O)c2[nH]c(-c3ccc(S(=O)(=O)O)cc3)nc2n(C)c1=O [NCGC00015000-05]
[5]
  Efficacy (%): -28%
[6]
  Curve Class: -2.2
[7]
  IC50: 50.1 µM

## Cc1c(O)cc2c(c1O)COC1(O)CCCOC21 (centres unmarked) [NCGC00380856-01]
[5]
  Efficacy (%): -23%
[6]
  Curve Class: -2.4
[7]
  IC50: 50.1 µM

## CC1=NN(c2ccccc2)C(=O)C1 [NCGC00018218-10]
[1]
  Efficacy (%): -46%
[2]
  Curve Class: -2.2
[3]
  IC50: 50.1 µM

## COc1ccc(NC(=O)c2ccc(-c3ccc(-c4noc(C)n4)cc3C)cc2)cc1N1CCN(C)CC1.Cl [NCGC00015476-05]
[5]
  Efficacy (%): -19%
[6]
  Curve Class: -2.2
[7]
  IC50: 17.8 µM

## N#C/C(=C\c1ccc(O)c(O)c1)C(=O)NCCc1ccccc1 [NCGC00016029-05]
[5]
  Efficacy (%): -15%
[6]
  Curve Class: -1.2
[7]
  IC50: 7.9 µM

## Cc1cc(OCCCS(C)(=O)=O)cc(C)c1-c1cccc(COc2ccc(-c3cc(=O)[nH][s+]3[O-])cc2)c1 (centres unmarked) [NCGC00485952-01]
[5]
  Efficacy (%): -27%
[6]
  Curve Class: -1.4
[7]
  IC50: 4 µM

## CC(=O)N[C@@H](CC(=O)O)C(=O)N[C@@H](CCC(=O)O)C(=O)N[C@H](C(=O)N[C@@H](CC(=O)O)C(=O)Nc1ccc2c(C)cc(=O)oc2c1)C(C)C [NCGC00485360-01]
qHTS primary screen hits, Table S2, NPACT library, negative sign = inhibitory curve
  Curve Class: -2.4
[1]
  Efficacy (%): -37%
[3]
  IC50: 39.8 µM

## CCCOc1ccccc1-c1nc(=O)c2nn[nH]c2[nH]1 [NCGC00016105-05]
[5]
  Efficacy (%): -22%
[6]
  Curve Class: -1.4
[7]
  IC50: 14.1 µM

## C=C1C(=O)O[C@@H]2[C@H]3O[C@]3(C)CC/C=C(/C)CC[C@@H]12 [NCGC00094250-05]
[5]
  Efficacy (%): -19%
[6]
  Curve Class: -1.2
[7]
  IC50: 10 µM

## COC[C@H]1OC(=O)c2coc3c2[C@@]1(C)C1=C(C3=O)C2CCC(=O)[C@@]2(C)C[C@H]1OC(C)=O (some centres unmarked) [NCGC00016094-12]
[8]
  Efficacy (%): -33%
qHTS FP screen hits, Table S2, one class per curve where COUNT > 1, negative sign = inhibitory curve
  Curve Class: -2.2
[9]
  IC50: 29.3 µM

## Cl.O=C(O)c1csc(-n2nc(-c3ccc(F)c(F)c3)c(Cc3ccccc3)c2O)n1 [NCGC00356264-02]
[1]
  Efficacy (%): -25%
[2]
  Curve Class: -2.4
[3]
  IC50: 79.4 µM

## O=C(Nc1nc(-c2ccccc2)cs1)c1ccncc1NS(=O)(=O)c1ccccc1Cl.O=C(O)C(F)(F)F [NCGC00344943-02]
[1]
  Efficacy (%): -50%
[3]
  IC50: 64.8 µM

## O=C(O)CCc1ccc(NCc2cccc3c2CCCN3CCOc2ccccc2)cc1F [NCGC00370998-03]
[5]
  Efficacy (%): -32%
[6]
  Curve Class: -2.4
[7]
  IC50: 44.7 µM

## C=C1C(=O)O[C@H]2C3=C(C)CCC[C@]3(C)C(=O)C[C@@H]12 [NCGC00168931-02]
[5]
  Efficacy (%): -27%
[6]
  Curve Class: -2.4
[7]
  IC50: 56.2 µM

## CO/N=C(\C(=O)N[C@@H]1C(=O)N2C(C(=O)O)=C(Cn3nnc(C)n3)CS[C@H]12)c1csc(N)n1 [NCGC00183016-01]
[1]
  Efficacy (%): -171%
[4]
  Curve Class: -3
[3]
  IC50: 89.1 µM

## CCCCCCCCCCCCCCC[C@H](O)[C@@H](N)CO [NCGC00015362-05]
[1]
  Efficacy (%): -110%
[2]
  Curve Class: -2.3
[3]
  IC50: 100 µM

## O=S(=O)(O)c1ccc2cc(/N=N/c3cc(S(=O)(=O)O)c4cccnc4c3O)ccc2c1 [NCGC00013917-09]
[1]
  Efficacy (%): -57%
[3]
  IC50: 14.3 µM

## Cc1ccnc(NC(=S)N2CC[C@@H](Nc3cccc(C(F)(F)F)c3)C2)c1 [NCGC00241356-01]
[1]
  Efficacy (%): -31%
[2]
  Curve Class: -2.4
[3]
  IC50: 79.4 µM

## COc1cc(N2CCC(N3CCN(C)CC3)CC2)ccc1Nc1ncc(Cl)c(Nc2ccccc2S(=O)(=O)C(C)C)n1 [NCGC00238453-07]
[5]
  Efficacy (%): -24%
[6]
  Curve Class: -2.4
[7]
  IC50: 56.2 µM

## Cc1ccc(CNc2ncnc3ccc(-c4ccc([C@@H](C)O)o4)cc23)o1 [NCGC00189252-01]
[8]
  Efficacy (%): -27%
[9]
  IC50: 12.6 µM

## Cc1ccc(S(=O)(=O)Nc2ccc(OC(F)(F)F)cc2C(=O)Nc2nc(-c3ccccc3)cs2)cc1.O=C(O)C(F)(F)F [NCGC00262991-01]
[1]
  Efficacy (%): -27%
[4]
  Curve Class: -2.4
[3]
  IC50: 44.7 µM

## CC(C)c1cc(F)cc2c1C[C@](CCN(C)CCCc1nc3ccccc3[nH]1)(OC(=O)C1CC1)CC2 [NCGC00162214-02]
[5]
  Efficacy (%): -30%
[6]
  Curve Class: -2.2
[7]
  IC50: 56.2 µM

## CNc1nc2c(s1)C(c1ccc(OC)cc1OC)CC(=O)N2.O=C(O)C(F)(F)F (centres unmarked) [NCGC00488262-02]
[1]
  Efficacy (%): -39%
[4]
  Curve Class: -2.4
[3]
  IC50: 56.2 µM

## NC(Cc1cc(O)c(O)cc1O)C(=O)O (centres unmarked) [NCGC00015503-06]
  Curve Class: -2.1
  Efficacy (%): -97%
IC50 [μM]
  IC50: 35.5 µM

## Cc1ccc(O)c2ncccc12 [NCGC00164506-02]
[1]
  Efficacy (%): -50%
[4]
  Curve Class: -2.2
[3]
  IC50: 44.7 µM

## Cl.Nc1ccc2cc3ccc(N)cc3nc2c1.Nc1ccc2cc3ccc(N)cc3nc2c1.O=S(=O)(O)O [NCGC00166245-04]
[1]
  Efficacy (%): -130%
[2]
  Curve Class: -1.1
[3]
  IC50: 2.2 µM

## O=C(c1cc(O)c(O)c([N+](=O)[O-])c1)c1ccccc1F [NCGC00015881-04]
[5]
  Efficacy (%): -35%
[6]
  Curve Class: -2.2
[7]
  IC50: 39.8 µM

## O=C(O)C(F)(F)F.c1ccc(-n2cc(-c3nnc4n3CCCCC4)cn2)cc1 [NCGC00249642-01]
[1]
  Efficacy (%): -39%
[4]
  Curve Class: -2.4
[3]
  IC50: 89.1 µM

## O=C(CCCN1CCC(n2c(=O)[nH]c3ccccc32)CC1)c1ccc(F)cc1 [NCGC00016602-04]
[1]
  Efficacy (%): -58%
[4]
  Curve Class: -2.4
[3]
  IC50: 50.1 µM

## O=C(CS)Nc1ccccc1 [NCGC00160366-02]
[1]
  Efficacy (%): -44%
[4]
  Curve Class: -3
[3]
  IC50: 89.1 µM

## COc1cc([C@H]2Oc3cc([C@H]4Oc5cc(O)cc(O)c5C(=O)[C@@H]4O)ccc3O[C@@H]2CO)ccc1O [NCGC00091057-06]
[1]
  Efficacy (%): -74%
[4]
  Curve Class: -2.2
[3]
  IC50: 28.5 µM

## C=C1CCC2C(C)(COC(C)=O)CCCC2(C)C1CCC(C)CC(=O)O (centres unmarked) [NCGC00384884-01]
[5]
  Efficacy (%): -20%
[6]
  Curve Class: -1.4
[7]
  IC50: 17.8 µM

## CCCc1n[nH]c2c1C(c1cc(Cl)cc(Cl)c1O)C(C#N)=C(N)O2 (centres unmarked) [NCGC00402340-02]
[5]
  Efficacy (%): -29%
[6]
  Curve Class: -2.4
[7]
  IC50: 44.7 µM

## C=CC(=O)Nc1cccc(Nc2nc(Nc3ccc(OCCOC)cc3)ncc2F)c1 [NCGC00386306-06]
[5]
  Efficacy (%): -22%
[6]
  Curve Class: -1.4
[7]
  IC50: 10 µM

## Nc1ccccc1N [NCGC00090885-03]
[1]
  Efficacy (%): -77%
[3]
  IC50: 113 µM

## Cc1ccc(CNc2ncnc3ccc(-c4ccc(CO)o4)cc23)o1.O=C(O)C(F)(F)F [NCGC00188654-01]
[1]
  Efficacy (%): -45%
[4]
  Curve Class: -2.2
[3]
  IC50: 50.1 µM

## COc1ccc(CNC(=O)c2ccc3c(c2)NC(=O)c2ccccc2S3)cc1 [NCGC00241665-01]
[1]
  Efficacy (%): -27%
[4]
  Curve Class: -2.4
[3]
  IC50: 56.2 µM
